According to patent US6133313A, “Insecticidal avocadofurans and triolein” (The Regents of the University of California, priority 1998, dated 2000):
Entries after “also recorded” stand apart in the source; their conditions may differ.

Experiments:
Assay type in all cases: in vivo, Spodoptera exigua
[1] = system: S. exigua larvae; assay: growth inhibition and mortality of synthetic avocadofurans and triolein in diet bioassay; details: for 7-d Instar / 7-d Larval Weight: mean ± SE
Description: S. exigua larvae were used in all experiments. Larvae were reared on artificial diet modified from U.S.D.A. Agric. Res. Serv., Prod. Res. Rep., 1208:1 (1969), and maintained at 28+2° C., 14:10; light:dark (L:D) photoperiod.
The colony was collected from Orange Co., Calif. and had new genetic material added within 12 months prior to the study. The age of the cohorts tested was standardized by using neonates within 12 hours of eclosion. All bioassays were maintained at 28+2° C. 75% relative humidity (RH), and at 14:10 (L:D) photoperiod with fluorescent lighting.
The insecticidal activity of the fractions was tested with artificial diet bioassays. Treated diets were prepared by transferring 750 μl of acetone solutions of each fraction (equivalent to 300 mg crude idioblast cell oil) into 50-ml polypropylene centrifuge tubes (Fisher, Pittsburgh Pa.), evaporating the acetone, adding 2 ml of 0.1% Tween-80 solution (Fisher), homogenizing with an ultrasonic homogenizer (Co le-Parmer, Chicago Ill.), and adding prepared diet to produce a final weight of 15 g containing the equivalent of 2% idioblast oil. The mixture was vortexed for 3 mm.
Control diet was prepared by mixing 2 ml of Tween solution and 13 g of artificial diet to produce a final weight of 15 g. Control and treated diets were poured into 24-well (15.9 mm diameter and 15.9 mm depth) bioassay trays (C-D International Inc., Pitman N.J.). One neonate was added per well, and trays were placed in an incubator under the previously described conditions. Twenty-four neonates were tested for each fraction and control. Mortality and larval weights were recorded after 7 days.
The effect of the synthetically produced avocado furan compounds (>95% purity) and commercially available triolein (Sigma, St. Louis, Mo.) were tested on larval growth and mortality of S exigua. Treated and control diet were prepared as previously described.
Six different compound concentrations, chosen on the basis of studies with the oil fractions, were evaluated for both 2-(pentadecyl)furan and 2-(heptadecyl)furan: 0 (control), 600, 750, 900, 1050, and 1200 μg/g. Also, six concentrations of triolein (subfraction 1-1-12) were tested: 0 (control), 7000, 8000, 9000, 10000, and 11000 μg/g.
Twenty-four neonates were used per treatment. Bioassays were conducted as described in Example 4, and replicated 4 times for each concentration (i.e., a total of 96 larvae were tested for each concentration). Larval weight, instar, and mortality were recorded after 7 days […].
(§1) EC (effective concentration) values were calculated by subtracting the mean larval weight for each treatment from the mean weight of the controls, and dividing by the mean weight of the controls. LC (lethal concentration) values were obtained using probit analysis as described in Probit Analysis (1971) Cambridge University Press, Cambridge, UK. GI (growth index) and RGI (relative growth index) values were calculated as described in J. Chem. Ecol., 19:1109 (1993), but using an imax of 3 (the stage attained by most control larvae after 7 d). Statistical comparisons were conducted using SuperAnova Abacus Concept Inc., Berkeley, Calif. (1989).

[2] = system: S. exigua; assay: synergistic/joint toxicity of avocadofuran and triolein combinations
From the text: The treatments were as follows: Control, 2-(pentadecyl)furan, 2-(heptadecyl)furan, triolein, individually, and 2-(pentadecyl)furan combined with 2-(heptadecyl)furan and triolein, 2-(pentadecyl)furan combined with triolein, and 2-(heptadecyl)furan combined with triolein. Because the combined LC25 s for both avocadofurans exceed their LC50 values, a concentration for each was adjusted so that when added it would approximate the value of the avocadofurans LC50 (see Table 2). These concentrations were used whenever both avocadofurans were combined in the same treatment. Treatments were replicated four times, with 15 larvae per replicate to a total of 60 larvae/treatment.
Joint effects were determined by testing all combinations of LC25 s (estimated from probit lines shown in Table 1) of the three compounds for toxicity to S. exigua. The treatments were: control, 2-(pentadecyl)furan, 2-(heptadecyl)furan, triolein, 2-(pentadecyl)furan+triolein, 2-(heptadecyl)furan+triolein, and 2-(pentadecyl)furan+2-(heptadecyl)furan+triolein. Because the combined LC25 s for both avocadofurans exceeded their LC50 values (due to a steep slope of their LC lines), a concentration for each was used so that when added together it would approximate the value of the avocadofurans LC50 (Table 1). These concentrations were used whenever both avocadofurans were combined in the same treatment.
Treatments were replicated four times, with 15 larvae per replicate (total of 60 larvae/treatment). Dietary treatment preparations and bioassay procedures were conducted as described in Example 4. For each diet treatment, 9-d larval instar and weight, pupal weights, times to pupation, and larval mortality were recorded.

[3] = system: neonate S. exigua; assay: individual toxicity of avocadofurans and triolein in artificial diet; details: for LC50 (95% FL): in diet
Description: In this study, individual activity of avocadofurans was investigated quantitatively. For this purpose, eight concentrations of the avocadofurans (1) and (4) and triolein (8) were tested. Results are seen in FIG. 6.
Following pilot studies, eight concentrations of each were tested: 0, 0.5, 1, 1.5, 2, 2.5, 3, and 3.5 μmoles g^~1 diet. Also, five concentrations of triolein were tested: 0; 1,000; 2,000; 3,000; and 4,000 μg g^~1 diet. Because triolein was not compared to a structurally similar compound, a more standard dietary formulation of μg g-^1 was used rather than ^~ moles g^-1 in all triolein-treated bioassays.
Treated and control diet were prepared as described above. For each concentration the compounds were dissolved in 10 ml of Tween solution and mixed using an ultrasonic homogenizer. Untreated diet was added to make a total of 100 g and then vortexed for 3 mm. Control diet was prepared by mixing 10 ml of the Tween solution with 90 g of artificial diet to produce a final weight of 100 g. Control and treated diets were poured into 30 ml plastic cups. One neonate was placed in each cup and cups were held in an incubator. Fifteen larvae were tested at each concentration, and assays were replicated 4 times (total of 60 larvae/treatment). For each diet treatment, 9-d larval instar and weight, pupal weights, times to pupation, and larval mortality were recorded.
as §1

[4] = Spodoptera exigua, feed or water, 168 h

CCCCCCCC/C=C\CCCCCCCC(=O)OCC(COC(=O)CCCCCCC/C=C\CCCCCCCC)OC(=O)CCCCCCC/C=C\CCCCCCCC [Triolein (8), triolein]
EC (effective concentration; weight reduction vs control) ([1]; 7000 μg/g): 65.43% | GI (growth index) ([1]; 7000 μg/g): 0.64 | 7-d Instar ([1]; 7000 μg/g): 2.35 ± 0.08 | 7-d Larval Weight ([1]; 7000 μg/g): 10.84 ± 1.42 mg | EC (effective concentration; weight reduction vs control) ([1]; 8000 μg/g): 43.64% | GI (growth index) ([1]; 8000 μg/g): 0.67 | 7-d Instar ([1]; 8000 μg/g): 2.70 ± 0.10 | 7-d Larval Weight ([1]; 8000 μg/g): 17.67 ± 2.05 mg | EC (effective concentration; weight reduction vs control) ([1]; 9000 μg/g): 84.44% | GI (growth index) ([1]; 9000 μg/g): 0.39 | 7-d Instar ([1]; 9000 μg/g): 1.91 ± 0.08 | 7-d Larval Weight ([1]; 9000 μg/g): 4.88 ± 0.65 mg | EC (effective concentration; weight reduction vs control) ([1]; 10000 μg/g): 81.52% | GI (growth index) ([1]; 10000 μg/g): 0.37 | 7-d Instar ([1]; 10000 μg/g): 1.87 ± 0.10 | 7-d Larval Weight ([1]; 10000 μg/g): 5.79 ± 0.96 mg | EC (effective concentration; weight reduction vs control) ([1]; 11000 μg/g): 71.85% | GI (growth index) ([1]; 11000 μg/g): 0.28 | 7-d Instar ([1]; 11000 μg/g): 1.95 ± 0.13 | 7-d Larval Weight ([1]; 11000 μg/g): 8.82 ± 2.22 mg | mortality at 7000 µg/g [1, 4]: 18.8% | mortality at 8000 µg/g [1, 4]: 26% | mortality at 9000 µg/g [1, 4]: 40.6% | mortality at 10000 µg/g [1, 4]: 42.7% | mortality at 11000 µg/g [1, 4]: 59.4% | LC50 (95% FL) ([1]; in diet): 10364 µg/g | level in artificial diet at which toxicity is exhibited ([1]; in vivo): about 1% | inhibition of larval growth ([1]; in words): significantly inhibited larval growth at relatively high concentrations | Relative Growth Index (RGI) vs log concentration regression (FIG. 4) ([1]; log (μg/g)): y=7.68-1.83*log(x), r^2 =0.86 | concentration significantly reducing larval weight and development ([1]; lowest concentration, in diet): ≥ 7000 µg/g | Survival to pupation ([2]; in vivo): 83.3% | Weight, 9-d larvae ([2]; mean ± spread): 111.8 ± 10.3 mg | Weight, Pupae ([2]; mean ± spread): 116.4 ± 3.7 mg | Developmental times ([2]; neonate-pupa, in d (unit assumed)): 15.3 ± 0.4 | Mortality (%) using LC25 ([2]; single substance, at estimated LC25): 16.7% | reduction of 9-d larval weight (FIG. 6B) ([3]; 2,000 μg g^-1 or higher): more than 35% | comparative toxic and inhibitory effect ([3]; in words): inhibitory at concentrations much higher than either of the avocadofurans tested in this assay | effect on larval mortality (FIG. 9) ([3]; in words): increases larval mortality | effect on pupal weight (FIG. 7) ([3]; in words): no effect on larval developmental time and pupal weight | larval developmental time from neonate to pupa (FIG. 8) ([3]; in words): not significantly prolonged; also recorded: no effect on larval developmental time | Relative Growth Index (RGI) (FIG. 10) ([3]; in words, increasing concentrations): decreased with increasing concentrations | concentration significantly reducing 9-d weight (FIG. 6B) ([3]; lowest concentration vs controls): ≥ 2,000 μg g^-1 | LC25 (95% FL) ([3]; triolein, larval stage): 1,900(1,304-2,339) μg g^-1 of diet | LC50 (95% FL) ([3]; triolein, larval stage, listed as Triolein): 3,631(2,979-5,203) μg g^-1 | LC50 (95% FL) ([3]; triolein, larval stage, listed as triolein): 3,631 μg g^-1

CCCCC/C=C\C/C=C\CCCCCCCc1ccco1 [2-(8Z,11Z-heptadecadienyl)furan]
inhibition of S. exigua growth compared to control larvae ([1]; 1600 μg/g): 54.51% | mortality at 1600 µg/g ([1]; Spodoptera exigua, feed or water, 1600 μg/g): < 5% | active concentration relative to the saturated compound (4) ([1]; in vivo): twice as high as the saturated compound (4) | comparative toxicity and growth inhibition ([1]; in words): of much lower toxicity than 2-(heptadecyl)furan (4) | concentration at which S. exigua growth is inhibited / compound active ([1]; lowest active concentration, in diet): ≥ 1600 µg/g
